Source: patent US20110039873A1, “SUBSTITUTED PYRAZOLO[1,5-a] PYRIDINE COMPOUNDS HAVING MULTI-TARGET ACTIVITY” (priority 2009, published 2011)
Where two headings read alike, the source gives them in different places.

Legend:
[1] = Oral pharmacokinetic evaluation; format: in vivo, rat; conditions: male, rat, Sprague-Dawley rats, 15 mg/kg oral gavage, plasma
Procedure: Three male Sprague-Dawley rats were dosed orally via gavage with 15 mg/kg of test compound. Serial blood samples were collected from the jugular vein at 5, 15, and 30 min, 1, 3, and 6 hours post dosing. Samples were processed for plasma via centrifugation and plasma samples were stored frozen prior to analysis via a sensitive and specific HPLC/MS/MS method. PK parameters were calculated using WinNonLin (Pharsight).

[2] = target: T1, catalytic domain of phosphodiesterase 4B enzyme cloned from human brain (Homo sapiens, UniProt Q07343); test: PDE4 inhibition assay (PDELight); format: biochemical; conditions: 5 uM cAMP; read-out: PDE 4 Inhibition (IC50 in μM)
T1 construct: the catalytic domain of phosphodiesterase 4B enzyme; purchased Scottish Biomedical
Method in brief: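 Human PDE4B catalytic domain (40 mU/well) incubated with 5 uM cAMP. AMP formed was converted to ATP and measured by luciferase luminescence (PDELight). IC50 derived by nonlinear regression curve fit.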

[3] = system: phosphorylated c-Jun (serine-73); test: Phosphorylated c-JUN (6-OHDA), SH-SY5Y; format: cell-based; conditions: Homo sapiens, 50 uM 6-hydroxydopamine, 1.5 hours, read-out: p-cJun 6-OHDA SH-SY5Y (EC50 in μM)
Procedure: Human SH-SY5Y neuroblastoma cells were cultured in 96-well plates with 2.5×10^4 cells/well and incubated for 48 hours. 6-hydroxydopamine was added at a concentration of 50 uM in the presence or absence of test compounds (0-30 uM) and incubated for 1.5 hours. Supernatant was discarded and cells were fixed with 4% paraformaldehyde (100 ul/well) for 20 minutes. FACE cell based ELISA assay (Active Motif) was performed specific for quantifying phosphorlyated c-Jun (serine-73).

[4] = system: Mouse BV-2 microglial cells; test: BV-2 glial cell assay (TNF-α and MCP-1 by Luminex); format: cell-based; conditions: for EC50: Mus musculus, BV-2, LPS and IFN-γ activated, 20 hours
Procedure: Mouse BV-2 microglial cells were seeded on 96-well plates at a concentration of 3×10^4 cells/well. Cells were activated with 100 ng/mL LPS and IFN-γ (100 ng/mL) in the presence or absence of test compounds (0-30 uM). Following incubation for 20 hours, cells were spun down and supernatant collected. The supernatant was analyzed via Luminex for the presence of TNF-α and MCP-1.

[5] = target: T2, recombinant full length human JNK3 enzyme (Homo sapiens, UniProt P53779); test: JNK 3 inhibition assay (ATP depletion, luciferase); format: biochemical
T2 construct: recombinant full length human JNK2 or JNK3 enzyme; purchased Upstate; host or cells: Sf21 cells
Procedure: In a 96-well plate, recombinant full length human JNK2 or JNK3 enzyme (40 ng) expressed in Sf21 cells (Upstate) was incubated with the substrate ATF2 (3 uM) for 1 hour in the presence of 10 uM ATP. […] The ATP levels were quantified using luciferase with luminescence read on a Victor Light 1420 luminometer. IC50 calculations were plotted using a nonlinear regression curve fit.

[6] = system: phosphorylated c-Jun (serine-73); test: Phosphorylated c-JUN (A-beta), SH-SY5Y; format: cell-based; conditions: Homo sapiens, Amyloid Beta peptide 30 uM, 3 hours, read-out: p-cJun Abeta SH-SY5Y (EC50 in μM)
Procedure: In 96-well plates either human SH-SY5Y neuroblastoma cells at 2.5×10^4 cells/well or E18 rat neuronal cells at 1.5×10^4 cells/well were seeded. […] Supernatant was discarded and cells were fixed with 4% paraformaldehyde (100 ul/well) for 20 minutes. FACE cell based ELISA assay (Active Motif) was performed specific for quantifying phosphorlyated c-Jun (serine-73).

[7] = target: T3, recombinant human phosphodiesterase 10A1 enzyme (Homo sapiens, UniProt Q9Y233); test: PDE10 inhibition assay (PDELight); format: biochemical; conditions: 1 uM cAMP; read-out: PDE 10 Inhibition (IC50 in μM)
T3 construct: purchased BPS Biosciences; host or cells: Baculovirus infected Sf9 cells

[8] = system: JNK kinase; test: Amyloid beta-induced phosphorylation of JNK kinase (FIG. 2); format: cell-based; conditions: neuronal cells stimulated with Amyloid Beta, ELISA
Procedure: In 96-well plates either human SH-SY5Y neuroblastoma cells at 2.5×10^4 cells/well or E18 rat neuronal cells at 1.5×10^4 cells/well were seeded. To each well the following was added, Amyloid Beta peptide 1-25 (source) at a concentration of 30 uM, retinoic acid (10 uM) and test compounds (0-30 uM) and incubated for 3 hours. Supernatant was discarded and cells were fixed with 4% paraformaldehyde (100 ul/well) for 20 minutes. FACE cell based ELISA assay (Active Motif) was performed specific for quantifying phosphorlyated c-Jun (serine-73).
Neuronal cells were stimulated with Amyloid Beta, the Alzheimer's related peptide, resulting in phosphorylation of JNK kinase as measured by ELISA.

[9] = system: at least one of JNK 3 or JNK 2 and at least one of PDE 10 or PDE 4; test: Dual inhibition (phosphodiesterase and JNK); format: biochemical, human; conditions: IC50 JNK 3 or JNK 2 less than about 5.00 μM and PDE 10 or PDE 4 less than about 20.0 or 30.0 μM
Method in brief: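 JNK2/JNK3: full-length human enzyme with 3 uM ATF2 and 10 uM ATP for 1 h, ATP depletion by luciferase luminescence. PDE4B catalytic domain with 5 uM cAMP, or PDE10A1 with 1 uM cAMP, 1 h; AMP converted to ATP for luminescence. Compounds 0–30 uM; IC50 by nonlinear regression.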

T2 sequence (P53779 whole entry): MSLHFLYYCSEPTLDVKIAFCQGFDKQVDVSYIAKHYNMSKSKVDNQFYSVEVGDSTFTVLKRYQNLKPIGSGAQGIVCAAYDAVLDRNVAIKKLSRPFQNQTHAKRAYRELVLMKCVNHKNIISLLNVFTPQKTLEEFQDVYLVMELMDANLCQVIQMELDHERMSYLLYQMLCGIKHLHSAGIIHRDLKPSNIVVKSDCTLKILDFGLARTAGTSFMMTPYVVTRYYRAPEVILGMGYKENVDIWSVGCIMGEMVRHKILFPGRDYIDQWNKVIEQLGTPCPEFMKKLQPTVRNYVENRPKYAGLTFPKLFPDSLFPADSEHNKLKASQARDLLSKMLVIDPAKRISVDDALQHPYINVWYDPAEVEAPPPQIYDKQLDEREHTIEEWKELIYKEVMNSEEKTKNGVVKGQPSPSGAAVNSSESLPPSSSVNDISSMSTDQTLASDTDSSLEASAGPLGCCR
T3 sequence (Q9Y233 1-779 isoform Q9Y233-1): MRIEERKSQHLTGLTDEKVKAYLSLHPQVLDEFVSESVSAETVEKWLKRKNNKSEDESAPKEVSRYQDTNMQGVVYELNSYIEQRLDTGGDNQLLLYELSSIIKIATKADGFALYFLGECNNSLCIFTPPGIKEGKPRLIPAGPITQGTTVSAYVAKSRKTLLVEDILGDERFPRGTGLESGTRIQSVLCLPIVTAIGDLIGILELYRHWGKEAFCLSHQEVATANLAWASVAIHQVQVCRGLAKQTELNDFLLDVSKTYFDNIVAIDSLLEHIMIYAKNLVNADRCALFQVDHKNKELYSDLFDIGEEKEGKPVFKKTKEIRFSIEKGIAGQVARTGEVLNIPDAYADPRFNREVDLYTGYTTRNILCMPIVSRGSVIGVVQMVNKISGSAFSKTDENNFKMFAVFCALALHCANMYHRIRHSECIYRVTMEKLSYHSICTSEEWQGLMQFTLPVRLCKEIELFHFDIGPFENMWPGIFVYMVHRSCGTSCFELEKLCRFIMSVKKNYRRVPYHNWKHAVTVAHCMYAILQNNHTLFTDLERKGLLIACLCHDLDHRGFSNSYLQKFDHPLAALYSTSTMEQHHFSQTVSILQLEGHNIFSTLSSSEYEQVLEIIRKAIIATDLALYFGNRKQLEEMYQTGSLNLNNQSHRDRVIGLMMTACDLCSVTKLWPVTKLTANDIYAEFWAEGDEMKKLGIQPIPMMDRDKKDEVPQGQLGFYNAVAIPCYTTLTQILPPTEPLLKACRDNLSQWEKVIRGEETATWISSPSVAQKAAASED
T1 sequence (Q07343 330-659 limits assumed): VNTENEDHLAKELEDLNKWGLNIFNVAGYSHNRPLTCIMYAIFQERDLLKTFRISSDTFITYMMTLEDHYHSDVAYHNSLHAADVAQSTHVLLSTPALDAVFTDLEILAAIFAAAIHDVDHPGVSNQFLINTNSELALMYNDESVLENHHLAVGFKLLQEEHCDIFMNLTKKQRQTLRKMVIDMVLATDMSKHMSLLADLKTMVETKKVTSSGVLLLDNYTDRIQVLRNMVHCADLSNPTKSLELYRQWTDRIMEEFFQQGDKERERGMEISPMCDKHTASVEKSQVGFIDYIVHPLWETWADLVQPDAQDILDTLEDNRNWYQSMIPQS

AUC(0-t) ([1]; read-out: Oral PK AUClast): < 10 ng·h/mL
Cmax ([1]; read-out: Oral PK Cmax): < 5 ng/mL
IC50 [2]: 15.5 µM
EC50 [3]: 0.7 µM
EC50 ([4]; read-out: MCP-1 BV-2 (EC50 in μM)): 0.9 µM
EC50 ([4]; read-out: TNF-a BV-2 (EC50 in μM)): 0.3 µM
IC50 ([5]; 10 uM ATP, ATF2 substrate): 0.4 µM
JNK-3 inhibition (in words) ([5]; see Table 2): particularly effective
EC50 [6]: 8.3 µM
IC50 [7]: 32 µM
dual inhibition (phosphodiesterase and JNK) [9]: effective dual inhibitors
SMILES: Cc1cccc2c(-c3ccnc(NC4CCCC4)n3)cnn12 [AV1184, N-cyclopentyl-4-(7-methylpyrazolo[1,5-a]pyridin-3-yl)pyrimidin-2-amine]
inhibiting glial cell activation (TNF-α and/or MCP-1) ([4]; Table 3): Particularly effective
inhibition of amyloid beta-induced phosphorylation of JNK kinase [8]: capable of inhibiting phosphorylation of JNK kinase in a dose-dependent manner
